Assay results: patent US20110275576A1, “Carbohydrate-Cyclopamine Conjugates as Anticancer Agents” (Utah State University, priority 2009, published 2011)
pIC50: −log10 of the molar value. Read-outs that look alike come from different tables or passages of the source.

Test system: A549 cells
Test: MTS assay, proliferation of A549 cells
Type: cell-based, human
Details: for pIC50: read-out: IC50, anticancer activity against lung cancer; for proliferation of A549 cells: statement on Table 1
Procedure: Experimental procedure for MTS assay. To determine the efficacy of the compounds to cancer cells, a 3-(4,5-dimethylthiazol-2-yl)-5-(3-carboxymethoxyphenyl)-2-(4- sulfophenyl)-2H-tetrazolium inner salt (MTS) assay was used. A549 cells (ATCC, Manassas, Va.), representing a human lung carcinoma cell line, were plated on flat-bottomed 96-well plates in the presence of various concentrations of each compound. After incubation for up to 48 h at 37° C., the percentage of cell proliferation was determined with the MTS assay (Promega CellTiter 96 Aqueous Assay. Madison, Wis.), following the manufacturer's instruction.

[1] = A549 human lung carcinoma cells, MTS assay, incubation up to 48 h at 37° C.

CC1=C2C[C@H]3[C@@H](CC=C4C[C@@H](O)CC[C@@]43C)[C@@H]2CC[C@]12O[C@@H]1C[C@H](C)CN[C@H]1[C@H]2C [cyclopamine]
pIC50 (Homo sapiens, A549, 48 h): 4.31

CC1=C2C[C@H]3[C@@H](CC=C4C[C@@H](O)CC[C@@]43C)[C@@H]2CC[C@]12O[C@@H]1C[C@H](C)CN(Cc3cn(C4OC(C)[C@H](O)C(O)[C@@H]4O)nn3)[C@H]1[C@H]2C (stereo partly drawn) [Example 3f, N-(1-(α-L-Rhamnopyranosyl)-1H-1,2,3-triazol-4-yl)methylcyclopamine]
proliferation of A549 cells compared with cyclopamine (A549 cells, MTS assay, comparison with cyclopamine): reduced the proliferation of A549 cells more than cyclopamine | proliferation of A549 cells (A549 cells, MTS assay): reduced the proliferation of A549 cells | pIC50 [1]: 4.48

CC1=C2C[C@H]3[C@@H](CC=C4C[C@@H](O)CC[C@@]43C)[C@@H]2CC[C@]12O[C@@H]1C[C@H](C)CN(Cc3cn([C@@H]4OC(CO)[C@@H](O[C@@H]5OC(CO)[C@H](O)C(O)C5O)C(O)C4O)nn3)[C@H]1[C@H]2C (stereo partly drawn) [Example 3d, N-(1-(4-O-(β-D-Galactopyranosyl)-β-D-glucopyranosyl)-1H-1,2,3-triazol-4-yl)methylcyclopamine]
proliferation of A549 cells (A549 cells, MTS assay): reduced the proliferation of A549 cells | pIC50 (Homo sapiens, A549, 48 h): 3.74

CC1=C2C[C@H]3[C@@H](CC=C4C[C@@H](O)CC[C@@]43C)[C@@H]2CC[C@]12O[C@@H]1C[C@H](C)CN(Cc3cn([C@@H]4OC(CO)[C@@H](O)C(O)C4O)nn3)[C@H]1[C@H]2C (stereo partly drawn) [Example 3a, N-(1-(β-D-Glucopyranosyl)-1H-1,2,3-triazol-4-yl)methylcyclopamine]
proliferation of A549 cells (A549 cells, MTS assay): reduced the proliferation of A549 cells | pIC50 [1]: 3.84

CC1=C2C[C@H]3[C@@H](CC=C4C[C@@H](O)CC[C@@]43C)[C@@H]2CC[C@]12O[C@@H]1C[C@H](C)CN(Cc3cn([C@@H]4OC(CO)[C@@H](O[C@@H]5OC(CO)[C@@H](O[C@@H]6OC(CO)[C@@H](O)C(O)C6O)C(O)C5O)C(O)C4O)nn3)[C@H]1[C@H]2C (stereo partly shown) [Example 3k]
proliferation of A549 cells (A549 cells, MTS assay): reduced the proliferation of A549 cells | pIC50 [1]: 4.02
